What was measured:
[1] = test system: cytoplasmic microtubule complex; test: Immunocytochemistry of the cytoplasmic microtubule complex; type: cell-based, rat kangaroo (Potorous tridactylus); details: PtK2 cells
Description: The PtK2 cell line was established from the kidney tissue of an adult male rat kangaroo (Potorous tridactylus).
Cells were seeded on glass coverslips in culture medium, supplemented with fetal bovine serum, at an initial concentration of 10,000/coverslip. After incubation overnight to allow spreading, treatments started at 37° C. for 1, 4 or 24 h. Cultures were then rinsed with phosphate-buffered saline and fixed in methanol at −20° C. The primary rabbit anti-tubulin polyclonal antibody was a gift from Dr. De Brabander (Janssen Life Sciences, Beerse, Belgium).
PtK2 cells were treated with DMSO (solvent control), JC168, or paclitaxel (positive control). After 1 hour, 4 hours, and 24 hours of incubation, cells were fixed and stained for the cytoplasmic microtubule complex.

MO4 cells [2] = test: Sulforhodamine B assay (cell growth); type: cell-based, murine; details: 4 days
Description: (§1) MO4 cells were treated with dimethyl sulfoxide (DMSO, solvent control), 0.001, 0.01, 0.1 or 1 μg/ml JC168 for 4 days. After said 4 days of incubation the cells were fixed and stained with sulforhodamine B to determine cellular protein content. Excess dye was removed by washing. Protein-bound dye was dissolved and optical density was measured. Data represent optical density (OD) as a percentage of solvent control (mean and standard deviation, n=6).
as §1, with “FIG. 2: Comparison of JC168 and paclitaxel to inhibit cell growth. MO4” for “MO4”, “1 μg/ml JC168” for “0.001, 0.01, 0.1”, “paclitaxel” for “JC168”, “n=6). […]” for “n=6).”
The sulforhodamine B (SRB) assay was used for cell density determination. […] The method allows a large number of samples to be tested within a few days, and is a quantitative assay for growth inhibition by microtubule inhibitors. […] The protein-bound dye was dissolved in 10 mM Tris base solution for OD determination at 510 nm using a microplate reader. […]

MO4 cells [3] = test: MTT assay (MTT conversion); type: cell-based, murine; details: 4 days
Description: (§2) FIG. 3: JC168 inhibits MTT conversion. MO4 cells were treated with dimethyl sulfoxide (DMSO, solvent control), 0.001, 0.01, 0.1 or 1 μg/ml JC168 for 4 days. Then, 3-(4,5-dimethylthiazol-2-yl)-2,5-diphenyltetrazolium bromide was added and the cultures were incubated to allow the cells to reduce the MTT into formazan. The formazan was dissolved and optical density was measured. Data represent optical density (OD) as a percentage of solvent control (mean and standard deviation, n=6).
as §2, with “FIG. 4: Comparison of” for “FIG. 3:”, “JC168 and paclitaxel to inhibit” for “JC168 inhibits”, “control), 1 μg/ml JC168” for “control), 0.001, 0.01, 0.1”, “μg/ml paclitaxel” for “μg/ml JC168”
As test cells for functional assays MO4 cells were used, which are murine virally transformed fibrosarcoma-like cells. […]
MTT (3-(4,5-Dimethylthiazol-2-yl)-2,5-diphenyltetrazolium bromide, a yellow tetrazole), was reduced to purple formazan in living cells. […] The absorbance of this colored solution was quantified by measuring it at a wavelength between 500 and 600 nm by a spectrophotometer. […]

MDA-MB231 GFP-LUC cells = test: Collagen type I invasion assay; type: cell-based, human; details: for Histological sections of the collagen gels: cells on top of the gel: after 14 days
Description: Invading cells were counted by phase-contrast microscopy as cells with extensions penetrating into the gel. (A) Invasion was calculated as the percentage of invading cells per high powered field (mean and standard deviation, n=10). Microphotographs of representative cultures of MDA-MB231 GFP-LUC cells treated with DMSO (B), 1 μg/ml JC168 (C), and 1 μg/ml paclitaxel (D) after 24 hours of incubation on top of a collagen type I gel. Scalebar=100 μm.
These cells are derived from a human mammary carcinoma and were stably transfected with green fluorescent protein (GFP) and luciferase (LUC).
Tissue invasion requires infiltration into an extracellular matrix (ECM) dominated by networks of collagen type I. The invasion model, presented here, consists of native, acid-extracted rat tail collagen type I containing nonhelical telopeptides situated at the N- and C-terminal ends. These telopeptides play an important role in intermolecular covalent cross-links necessary for a gel architecture presenting itself as a structural barrier to cancer cell traffic. Collagen type I solution was prepared with a final concentration of 1 mg ml^−1 collagen type I by mixing the following pre-cooled (stored at 4° C.) components: 4 volumes collagen type I (stock is 3.49 mg ml^−1), 5 volumes of calcium- and magnesium-free Hank's balanced salt solution (CMF-HBSS), 1 volume of minimal essential medium (MEM) (10×), 1 volume of 0.25 M NaHCO3, 2.65 volumes of standard medium and 0.3 volumes of 1M NaOH to make the solution alkaline. The collagen type I solution was gently poured into the wells of a 6-well plate. The experimental set-up was placed at 37° C. in a humidified atmosphere with 10% CO2 in air for at least 1 h. After gelification, a cell suspension of MDA-MB231 GFP-LUC cells was added on top of the collagen gels and incubated for 24 hours. […] Invasion is calculated as the percentage of invading cells per high powered field and is expressed as the mean and standard deviation. The number of examined fields is 10. The sections were stained with hematoxylin-eosin.
MDA-MB231 GFP-LUC cells were treated with DMSO (solvent control), JC168, or paclitaxel (positive control) or left untreated (control) and incubated on a collagen type I gel. After 24 hours of incubation, invasion into the collagen was evaluated by phase-contrast microscopy. […] From this we can conclude that the number of invaded cells is clearly lower in the treated cultures.

MO4 cells [4] = test: Chick heart invasion assay; type: cell-based, murine; details: 1 μg/ml, invasion of MO4 cells into embryonic chick heart
Description: Aggregates of MO4 cells were prepared by diluting single dissociated cells to appropriate concentrations in 6 ml complete growth medium in a 50 ml Erlenmeyer flask and incubated on a Gyrotory shaker at 37° C. and 70 rpm in a humidified atmosphere with 10% CO2 in air for 72 h. The aggregates were confronted overnight on top of semi-solid agar medium with precultured heart fragments (PHF, diameter 0.4 mm) prepared from 9-day-old chick embryos. Suspension organotypic cultures were incubated in 1.5 ml culture medium with or without a test compound on a Gyrotory shaker at 120 rpm under a controlled atmosphere containing 10% CO2 in air. Cells were fixed in Bouin-Hollande's solution and embedded in paraffin for histologic determination of cell invasiveness. Consecutive sections were stained with haematoxylin-eosin. Invasion is defined as the progressive occupation of PHF by the confronting test cells. Microscopic analysis of all consecutive sections from a confronting culture allowed the reconstruction of the interaction between the cell aggregate and the PHF in three dimensions.
The observation of different patterns of interaction has led to the following scale:
Grade I and II are observed with non-invasive cell populations, while grade III an IV are typical of invasion. To evaluate progression with time, histological analysis was done on confronting cultures fixed after different incubation periods.
MO4 cells were confronted with precultured heart fragments and the organotypic cultures were incubated in suspension in the presence of DMSO (solvent control), JC168 or paclitaxel (positive control) for 2-4 days.

Row | Compound | Effect on the cytoplasmic microtubule complex, 1 hour ([1]; 0.1 μg/ml) | Effect on the cytoplasmic microtubule complex, 4 hours ([1]; 0.1 μg/ml) | Effect on the cytoplasmic microtubule complex, 24 hours ([1]; 0.1 μg/ml) | Effect on the cytoplasmic microtubule complex, 1 hour ([1]; 1.0 μg/ml) | Effect on the cytoplasmic microtubule complex, 4 hours ([1]; 1.0 μg/ml) | Effect on the cytoplasmic microtubule complex, 24 hours ([1]; 1.0 μg/ml) | Potency to inhibit cell growth as compared to paclitaxel (MO4 cells [2]; 1 μg/ml each, FIG. 2) | Effect on cell growth (sulforhodamine B, words) (MO4 cells [2]; 0.001-1 μg/ml, FIG. 1) | Potency to inhibit MTT conversion as compared to paclitaxel (MO4 cells [3]; 1 μg/ml each, FIG. 4) | Effect on MTT conversion into formazan (MO4 cells [3]; 0.001-1 μg/ml, FIG. 3) | Potency to inhibit invasion in collagen type I as compared to paclitaxel (MDA-MB231 GFP-LUC cells; MDA-MB231 GFP-LUC cells, 24 hours) | Effect on invasion into collagen type I (MDA-MB231 GFP-LUC cells; MDA-MB231 GFP-LUC cells, 24 hours, FIG. 5) | Histological sections of the collagen gels: cells on top of the gel (MDA-MB231 GFP-LUC cells) | Number of organotypic cultures classified Grade I (MO4 cells [4]; incubation 2 days) | Number of organotypic cultures classified Grade II (MO4 cells [4]; incubation 3 days) | Number of organotypic cultures classified Grade II (MO4 cells [4]; incubation 4 days) | Number of organotypic cultures classified Grade III (MO4 cells [4]; incubation 4 days)
1 | CC[C@H](/C=C(/C)[C@@H]1C[C@@H](OC)C[C@H](O)C(C)(C)c2cccc(c2)C[C@@H](O)C(O)C(=O)O1)CO (stereo partly drawn) [JC168, (1′Z,3R,3′R,4S,7S,9S,11S)-3,4,11-Trihydroxy-7-(3′-hydroxymethyl-1′-methylpent-1′-enyl)-9-methoxy-12,12-dimethyl-6-oxabicyclo[11.3.1]heptadeca-1(17),13,15-trien-5-one] | disturbed | disturbed | disturbed | disturbed | disturbed | disturbed | 5% | inhibits cell growth | 3% | inhibits the conversion | 89% | inhibits invasion | low number of cells on top of the gel | n = 5 | n = 5 | n = 3 | n = 3
2 | CC(=O)O[C@H]1C(=O)[C@@]2(C)[C@H]([C@H](OC(=O)c3ccccc3)[C@]3(O)C[C@H](OC(=O)[C@H](O)[C@@H](NC(=O)c4ccccc4)c4ccccc4)C(C)=C1C3(C)C)[C@]1(OC(C)=O)CO[C@@H]1C[C@@H]2O [paclitaxel, reference compound] | normal | disturbed | disturbed | disturbed | disturbed | disturbed |  |  |  |  |  |  | low number of cells on top of the gel |  |  | n = 5 | 

Source: patent US9771344B2, “Peloruside analogs” (Universiteit Gent, priority 2013, dated 2017)
